Assay results taken from patent US9492471B2, “Methods of treating a disease or disorder associated with Bruton'S Tyrosine Kinase” (Celgene Avilomics Research, Inc., priority 2013, dated 2016).
Where two headings read alike, the source gives them in different places.

Key:
Assay in all cases: HotSpot kinase profiling
Format in all cases: biochemical
TAOK2/TAO1 = biological target: T1, TAOK2/TAO1 (Homo sapiens, UniProt Q9UL54)
T1 construct: purchased Reaction Biology Corp
T1 sequence (Q9UL54 1-1235): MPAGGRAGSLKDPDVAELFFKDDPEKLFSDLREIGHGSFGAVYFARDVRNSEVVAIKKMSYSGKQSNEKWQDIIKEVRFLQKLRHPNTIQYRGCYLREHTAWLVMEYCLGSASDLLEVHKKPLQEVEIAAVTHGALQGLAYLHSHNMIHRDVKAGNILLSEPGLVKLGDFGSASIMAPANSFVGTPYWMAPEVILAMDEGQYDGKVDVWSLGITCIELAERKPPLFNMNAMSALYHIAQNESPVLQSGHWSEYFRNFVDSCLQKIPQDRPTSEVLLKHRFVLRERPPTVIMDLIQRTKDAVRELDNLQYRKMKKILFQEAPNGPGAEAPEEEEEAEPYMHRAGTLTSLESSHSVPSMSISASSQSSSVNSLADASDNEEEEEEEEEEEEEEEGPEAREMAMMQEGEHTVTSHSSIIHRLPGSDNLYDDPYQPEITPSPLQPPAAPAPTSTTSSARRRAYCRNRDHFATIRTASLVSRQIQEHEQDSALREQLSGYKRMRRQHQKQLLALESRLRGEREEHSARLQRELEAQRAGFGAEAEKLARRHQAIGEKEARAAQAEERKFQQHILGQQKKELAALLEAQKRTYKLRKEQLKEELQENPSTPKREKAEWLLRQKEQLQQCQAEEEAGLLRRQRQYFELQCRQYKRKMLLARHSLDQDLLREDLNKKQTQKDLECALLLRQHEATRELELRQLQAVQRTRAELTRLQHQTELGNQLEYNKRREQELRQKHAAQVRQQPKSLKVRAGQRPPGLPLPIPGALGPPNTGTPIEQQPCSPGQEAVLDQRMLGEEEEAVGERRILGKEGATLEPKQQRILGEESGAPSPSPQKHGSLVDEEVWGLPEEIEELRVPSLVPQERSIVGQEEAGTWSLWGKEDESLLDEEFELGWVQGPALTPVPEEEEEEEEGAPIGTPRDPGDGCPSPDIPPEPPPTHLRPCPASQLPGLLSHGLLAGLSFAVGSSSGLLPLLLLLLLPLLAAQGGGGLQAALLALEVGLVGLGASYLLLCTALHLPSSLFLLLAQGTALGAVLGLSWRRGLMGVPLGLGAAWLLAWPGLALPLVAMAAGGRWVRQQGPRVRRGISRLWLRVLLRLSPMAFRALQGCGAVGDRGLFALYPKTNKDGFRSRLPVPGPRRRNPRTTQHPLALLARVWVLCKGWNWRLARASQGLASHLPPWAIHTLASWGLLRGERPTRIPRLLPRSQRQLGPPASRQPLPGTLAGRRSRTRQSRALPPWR
In short: (§1)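 Activity is measured by radiolabel transfer captured on P81 filters after a 2 h room-temperature reaction of kinase, substrate and cofactors. Values are percent inhibition against DMSO.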

GRK4 = biological target: T2, GRK4 (Homo sapiens, UniProt P32298)
T2 construct: purchased Reaction Biology Corp
In short: as §1

HCK = biological target: T3, HCK (Homo sapiens, UniProt P08631)
T3 construct: purchased Reaction Biology Corp
In short: as §1

MEKK2 = biological target: T4, MEKK2 (Homo sapiens, UniProt Q9Y2U5)
T4 construct: purchased Reaction Biology Corp
T4 sequence (Q9Y2U5 1-619): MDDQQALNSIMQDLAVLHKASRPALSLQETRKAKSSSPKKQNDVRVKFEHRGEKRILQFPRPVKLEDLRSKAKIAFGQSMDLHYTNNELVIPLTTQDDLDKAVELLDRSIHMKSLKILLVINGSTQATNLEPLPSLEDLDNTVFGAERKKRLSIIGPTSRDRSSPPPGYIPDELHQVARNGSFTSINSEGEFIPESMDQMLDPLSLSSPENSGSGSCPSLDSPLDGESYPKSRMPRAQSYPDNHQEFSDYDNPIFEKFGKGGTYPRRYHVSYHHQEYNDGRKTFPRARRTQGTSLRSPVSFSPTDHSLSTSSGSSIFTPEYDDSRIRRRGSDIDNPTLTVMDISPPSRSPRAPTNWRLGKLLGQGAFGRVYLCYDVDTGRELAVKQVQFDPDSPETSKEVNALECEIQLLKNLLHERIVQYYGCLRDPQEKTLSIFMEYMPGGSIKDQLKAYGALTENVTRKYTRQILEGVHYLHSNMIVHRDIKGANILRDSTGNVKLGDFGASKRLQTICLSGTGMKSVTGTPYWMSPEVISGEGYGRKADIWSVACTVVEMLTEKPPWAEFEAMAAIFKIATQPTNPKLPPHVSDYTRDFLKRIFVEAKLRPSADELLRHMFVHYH
In short: as §1

SRPK1 = biological target: T5, SRPK1 (Homo sapiens, UniProt Q96SB4)
T5 construct: purchased Reaction Biology Corp
In short: as §1

FAK/PTK2 = biological target: T6, FAK/PTK2 (Homo sapiens, UniProt Q05397)
T6 construct: purchased Reaction Biology Corp
In short: as §1

[1] = read-out: % Enzyme Activity (relative to DMSO controls) Run 1
[2] = read-out: % Enzyme Activity (relative to DMSO controls) Run 2

T3 sequence (P08631 whole entry): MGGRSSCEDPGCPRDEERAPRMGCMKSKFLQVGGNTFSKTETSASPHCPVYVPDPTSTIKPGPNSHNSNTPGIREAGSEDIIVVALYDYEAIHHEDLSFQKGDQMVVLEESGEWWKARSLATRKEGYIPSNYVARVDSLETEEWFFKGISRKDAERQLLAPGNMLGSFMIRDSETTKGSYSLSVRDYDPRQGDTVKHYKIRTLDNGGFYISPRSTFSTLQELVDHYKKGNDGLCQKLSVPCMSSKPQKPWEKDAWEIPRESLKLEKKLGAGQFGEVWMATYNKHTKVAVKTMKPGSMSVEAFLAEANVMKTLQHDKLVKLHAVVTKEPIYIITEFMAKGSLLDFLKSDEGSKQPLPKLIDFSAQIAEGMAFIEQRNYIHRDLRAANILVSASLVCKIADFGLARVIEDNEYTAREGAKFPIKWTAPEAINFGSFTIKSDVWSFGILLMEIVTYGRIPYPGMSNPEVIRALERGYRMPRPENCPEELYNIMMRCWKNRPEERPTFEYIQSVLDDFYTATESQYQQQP
T5 sequence (Q96SB4 whole entry): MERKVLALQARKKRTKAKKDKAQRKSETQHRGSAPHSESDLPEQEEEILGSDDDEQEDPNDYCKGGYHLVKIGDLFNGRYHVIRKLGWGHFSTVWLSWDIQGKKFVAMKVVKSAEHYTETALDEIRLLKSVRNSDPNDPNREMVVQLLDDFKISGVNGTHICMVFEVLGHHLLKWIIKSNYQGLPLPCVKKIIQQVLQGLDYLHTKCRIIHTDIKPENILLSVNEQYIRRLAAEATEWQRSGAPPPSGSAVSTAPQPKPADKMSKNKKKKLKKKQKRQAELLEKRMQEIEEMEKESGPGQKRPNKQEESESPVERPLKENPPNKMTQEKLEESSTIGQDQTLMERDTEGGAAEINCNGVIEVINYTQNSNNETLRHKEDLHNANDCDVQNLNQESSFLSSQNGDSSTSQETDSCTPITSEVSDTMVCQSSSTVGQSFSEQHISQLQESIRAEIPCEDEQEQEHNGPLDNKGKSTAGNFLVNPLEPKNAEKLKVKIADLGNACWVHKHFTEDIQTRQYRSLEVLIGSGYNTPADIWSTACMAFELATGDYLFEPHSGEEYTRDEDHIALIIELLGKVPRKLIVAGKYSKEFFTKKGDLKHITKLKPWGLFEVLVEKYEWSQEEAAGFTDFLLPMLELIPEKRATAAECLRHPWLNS
T2 sequence (P32298 whole entry): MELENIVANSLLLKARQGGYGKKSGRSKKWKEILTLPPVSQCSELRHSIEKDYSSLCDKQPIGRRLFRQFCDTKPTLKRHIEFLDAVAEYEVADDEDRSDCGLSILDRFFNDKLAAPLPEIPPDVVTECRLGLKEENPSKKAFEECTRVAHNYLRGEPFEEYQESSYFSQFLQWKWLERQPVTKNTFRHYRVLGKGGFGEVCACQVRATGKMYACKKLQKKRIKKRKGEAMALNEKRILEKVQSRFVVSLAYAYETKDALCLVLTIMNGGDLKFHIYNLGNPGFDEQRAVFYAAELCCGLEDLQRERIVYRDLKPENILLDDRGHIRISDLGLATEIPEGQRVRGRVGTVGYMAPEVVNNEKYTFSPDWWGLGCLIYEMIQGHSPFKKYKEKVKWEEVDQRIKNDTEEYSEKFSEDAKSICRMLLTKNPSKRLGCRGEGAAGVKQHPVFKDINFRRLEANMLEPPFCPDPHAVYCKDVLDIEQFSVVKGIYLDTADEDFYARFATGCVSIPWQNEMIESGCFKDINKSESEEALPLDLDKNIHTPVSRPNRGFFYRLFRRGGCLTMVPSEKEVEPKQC
T6 sequence (Q05397 whole entry): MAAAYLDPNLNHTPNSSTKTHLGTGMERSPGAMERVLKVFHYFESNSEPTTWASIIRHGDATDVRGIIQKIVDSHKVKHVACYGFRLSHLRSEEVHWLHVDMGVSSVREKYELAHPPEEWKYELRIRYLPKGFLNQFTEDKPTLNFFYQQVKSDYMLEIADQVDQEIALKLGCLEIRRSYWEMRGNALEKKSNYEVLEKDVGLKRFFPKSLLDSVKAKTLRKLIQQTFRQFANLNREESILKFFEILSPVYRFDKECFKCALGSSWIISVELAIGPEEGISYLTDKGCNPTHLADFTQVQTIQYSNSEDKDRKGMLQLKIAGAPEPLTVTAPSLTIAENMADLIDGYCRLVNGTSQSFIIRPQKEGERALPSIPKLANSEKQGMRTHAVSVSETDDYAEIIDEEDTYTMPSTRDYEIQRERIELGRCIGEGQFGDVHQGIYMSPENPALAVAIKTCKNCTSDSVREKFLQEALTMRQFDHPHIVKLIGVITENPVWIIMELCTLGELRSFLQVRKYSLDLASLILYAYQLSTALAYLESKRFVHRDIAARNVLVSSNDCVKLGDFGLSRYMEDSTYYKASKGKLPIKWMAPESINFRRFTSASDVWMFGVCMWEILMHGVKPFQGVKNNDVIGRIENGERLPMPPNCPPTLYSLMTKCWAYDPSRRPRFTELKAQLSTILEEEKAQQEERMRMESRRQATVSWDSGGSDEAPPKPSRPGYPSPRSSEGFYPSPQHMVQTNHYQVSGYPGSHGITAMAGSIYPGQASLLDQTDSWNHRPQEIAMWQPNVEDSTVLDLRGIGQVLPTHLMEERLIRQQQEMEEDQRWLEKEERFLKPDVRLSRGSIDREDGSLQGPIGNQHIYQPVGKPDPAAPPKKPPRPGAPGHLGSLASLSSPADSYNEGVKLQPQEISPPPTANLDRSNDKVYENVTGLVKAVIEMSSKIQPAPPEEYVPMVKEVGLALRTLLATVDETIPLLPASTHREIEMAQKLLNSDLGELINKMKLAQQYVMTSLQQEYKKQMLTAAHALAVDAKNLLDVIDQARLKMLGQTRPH

In the case of `C=CC(=O)Nc1cccc(Nc2nc(Nc3ccc(OCCOC)c(F)c3)ncc2F)c1` [Compound 2], the inhibition at 3 µM (TAOK2/TAO1) is reported as 3.53%, the remaining activity at 3 µM (TAOK2/TAO1; [1]) is reported as 98.5% and the remaining activity at 3 µM (TAOK2/TAO1; [2]) is reported as 94.4%. For the same compound, the inhibition at 3 µM (GRK4) was -6.61%, the remaining activity at 3 µM (GRK4; [1]) was 107% and the remaining activity at 3 µM (GRK4; [2]) was 106%. It also gave an inhibition at 3 µM (HCK) of 29.5%, a remaining activity at 3 µM (HCK; [1]) of 72% and a remaining activity at 3 µM (HCK; [2]) of 69%. It also gave an inhibition at 3 µM (MEKK2) of -10.9%, a remaining activity at 3 µM (MEKK2; [1]) of 108% and a remaining activity at 3 µM (MEKK2; [2]) of 114%. It also gave an inhibition at 3 µM (SRPK1) of 2.23%, a remaining activity at 3 µM (SRPK1; [1]) of 98.8% and a remaining activity at 3 µM (SRPK1; [2]) of 96.7%. It also gave an inhibition at 3 µM (FAK/PTK2) of 37.1%, a remaining activity at 3 µM (FAK/PTK2; [1]) of 62.8% and a remaining activity at 3 µM (FAK/PTK2; [2]) of 62.9%.
